Patent publication US20240407363A1 (priority 2021, published 2024)

Tests used:
[1] = system: X. perforans GEV-485; test: In vitro MIC and MBC determination in nutrient broth / on NA plates; assay type: cell-based; conditions: three trials
Method: X. perforans strain GEV-485, a copper-resistant strain, was used in this study to evaluate the antibacterial activity of Hx. Working cultures of GEV-485 were retrieved from −80° C. storage vials containing bacterial suspensions in 30% glycerol (v/v). Bacterial cells were taken from the storage, streaked on nutrient agar (NA; Difco™ Sparks, MD) plates and incubated for 48 h at 28° C. and single colonies were picked and streaked on NA plates to ensure bacterial purity for further cultures. NA amended with copper (II) sulfate pentahydrate (CuSO4·5H2O) (Fisher Scientific-Hampton, NH) at 20 ppm, was used as copper tolerance selective agent. To prepare the bacterial inoculum, a single bacterial colony was streaked on NA and incubated for 24 h at 28° C. From those plates, loops of bacterial cells were collected and resuspended in SDW amended with 0.01 M MgSO4. The bacterial concentration was adjusted to ˜5.0×10^8 colony-forming units (CFU)/mL based on an optical density (OD) of 0.3 at 600 nm. The in vitro studies were conducted to determine the minimum inhibitory concentration (MIC), minimum bactericidal concentration (MBC), and the antibacterial activity at different time points.
To determine MIC of Hx against X. perforans GEV-485, individual 96-well plates containing 100 μL of nutrient broth (NB) with varied copper and Hx concentrations were inoculated with 100 μL of the GEV-485 suspension at the concentration of 1.0×10^8 CFU/mL. The final chemical concentrations on the wells were 16, 32, 64, 128, 256, 512, 1024, 2048, 4096 and 8192 mg/L. Three wells with 100 µL of NB and 100 μL of the bacterial suspension were the controls. Solutions in all wells were thoroughly mixed by pipetting. The plate was, then, covered with a lid and incubated under stationary conditions at 28° C. for 24 h. The value of MIC for Hx and copper was determined as the minimum concentration (mg/L), at which the bacterial growth was inhibited (the solution was clear), among all tested concentrations of each chemical. After MIC was determined, an aliquot of 20 μL of the solution from the wells that gave a clear solution was plated on NA. […] The MBC was determined as the minimum concentration, at which >99.9% of the initial bacterial populations were killed and no visible growth of the bacterium was observed on the NA plates among all tested concentrations of antimicrobial agents. The experiment was repeated two more times, with three replications for each treatment.

[2] = system: X. perforans (a copper-resistant strain QL); test: Greenhouse experiment, bacterial spot of tomato (cv. FL 47), compounds sprayed approx. 2 h before inoculation; assay type: in vivo; conditions: for BS1 average disease severity of bacterial spot on two mostly infected leaves / WHOLE1 disease severity over the whole plant: 10 d after inoculation; for BS2 average disease severity of bacterial spot on two mostly infected leaves / WHOLE2 disease severity over the whole plant: 12 d after inoculation; for BS3 average disease severity of bacterial spot on two mostly infected leaves / WHOLE3 disease severity over the whole plant: 14 d after inoculation; for AUDPC_BS: two mostly infected leaves, 10, 12, 14 days after inoculation; for AUDPC_WHOLE: whole plant, 10, 12, 14 days after inoculation
Method: Tomato (cv. FL 47) was seeded in the greenhouse (the highest temperature was set at 82° F.) and the seedlings with two fully expanded leaves (about 3 weeks after seeding) were transplanted to soilless mix in 6-inch pots. One week after transplanting, treatments with the compounds at the test concentrations were sprayed onto plants until runoff approx. 2 h before inoculation with X. perforans. Untreated plants were used as the control (CK). There were five plants in each treatment and one plant served as one replicate. All plants were inoculated by spraying a bacterial suspension of X. perforans (a copper-resistant strain QL) at 1×10^8 CFU/ml until runoff. Inoculated plants were incubated in a moist chamber overnight (approx. 18 h) to ensure and promote infection by X. perforans. Then the inoculated plants were taken out and placed randomly on a bench inside the greenhouse for disease development. Plants were sprayed with mist periodically to stimulate disease development. When lesions on the leaves were apparent, the percentage of leaf area covered by the lesions, either for the two mostly infected leaves or the whole plant, was rated and recorded for each treatment. Disease rating was conducted at least two times. The area under the disease progress curve (AUDPC) was calculated for each treatment to reflect the disease development over a period if disease rating was carried out three times or more.

[3] = system: Xanthomonas perforans; test: Field trials on piperidine and pyrrolidine, bacterial spot of tomato, foliar spray; assay type: in vivo; conditions: for AUDPC / BS last rating of bacterial spot severity / YIELD: foliar spray at the concentration given with each treatment; for increase of marketable tomato fruit yield compared to the untreated control (CK) / bacterial spot disease severity and AUDPC compared to the untreated control (CK): pyrrolidine at 128 mg/ml; for bacterial spot disease severity and AUDPC compared to the untreated control (CK): foliar sprays, both independent trials, 2021-2022
From the text: Tomato seedlings were transplanted in fall for the first trial (trial 1) and spring for the second trial (trial 2). Treatments were started about two weeks after transplanting following weekly applications for a total of eight weeks. Tomato plants were inoculated with the pathogen Xanthomonas perforans (1-5×10^6 cfu/ml) the following day in the afternoon after the third treatment. Disease severity was rated weekly when bacterial spot symptoms were observed, and area under the disease progress curve (AUDPC) was calculated. Tomato fruit were harvested two to three times for each trial and graded according to the USDA standard. Total fruit yield in each treatment and the untreated control (CK) was subjected to statistical analysis using SAS (version 9.2, SAS Institute Inc., Cary, NC, USA). Disease severity of last rating and AUDPC from each trial were analyzed and presented.
All treatments were applied through a foliar spray at specified concentrations. Piperidine and pyrrolidine were evaluated in two independent trials. Tomato cultivar was ‘Red bounty’ in trial 1, and ‘Varsity’ in trial 2.

[4] = first value named of two independent trials, piperidine at 64 mg/ml
[5] = second value named of two independent trials, piperidine at 64 mg/ml

| Molecule | BS1 average disease severity of bacterial spot on two mostly infected leaves ([2]; 64 mg/L = 64 ppm) | WHOLE1 disease severity over the whole plant ([2]; 64 mg/L = 64 ppm) | BS2 average disease severity of bacterial spot on two mostly infected leaves ([2]; 64 mg/L = 64 ppm) | WHOLE2 disease severity over the whole plant ([2]; 64 mg/L = 64 ppm) | BS3 average disease severity of bacterial spot on two mostly infected leaves ([2]; 64 mg/L = 64 ppm) | WHOLE3 disease severity over the whole plant ([2]; 64 mg/L = 64 ppm) | AUDPC_BS ([2]; 64 mg/L = 64 ppm) | AUDPC_WHOLE ([2]; 64 mg/L = 64 ppm) | AUDPC ([3]; Trial 1, cv. Red bounty) | BS last rating of bacterial spot severity ([3]; Trial 1, cv. Red bounty) [b %] | YIELD ([3]; Trial 1, cv. Red bounty) [a kg/plant] | AUDPC ([3]; Trial 2, cv. Varsity) [b] | BS last rating of bacterial spot severity ([3]; Trial 2, cv. Varsity) [b %] | YIELD ([3]; Trial 2, cv. Varsity) [a kg/plant] | increase of marketable tomato fruit yield compared to the untreated control (CK) [3, 4] [%] | bacterial spot disease severity and AUDPC compared to the untreated control (CK) ([3]; piperidine at 64 mg/ml) | increase of marketable tomato fruit yield compared to the untreated control (CK) [3, 5] [%] | further results |
| --- | --- | --- | --- | --- | --- | --- | --- | --- | --- | --- | --- | --- | --- | --- | --- | --- | --- | --- |
| O=S(=O)([O-])[O-].[Cu+2] [Copper (CuSO4), CuSO4, reference compound] |  |  |  |  |  |  |  |  |  |  |  |  |  |  |  |  |  | MIC ([1]; 28° C. for 24 h, copper-resistant strain): 1024 µg/mL; MBC ([1]; >99.9% of initial bacterial populations killed, no visible growth on NA): 2048 µg/mL |
| C1CCNCC1 [Piperidine, piperidine] | 30.0 a | 10.0 ab | 36.0 a | 28.0 a | 54.0 a | 32.0 a | 546.0 a | 343.0 a | 495.9 bc | 34.6 | 3.88 | 394.9 | 23.8 | 4.38 | 15.5 | significantly (P<0.05) reduced bacterial spot disease severity at the last rating and the overall disease progress | 17.6 | BS1 average disease severity of bacterial spot on two mostly infected leaves ([2]; 32 mg/L = 32 ppm): 24.5 a; WHOLE1 disease severity over the whole plant ([2]; 32 mg/L = 32 ppm): 14.2 a; BS2 average disease severity of bacterial spot on two mostly infected leaves ([2]; 32 mg/L = 32 ppm): 33.0 a; WHOLE2 disease severity over the whole plant ([2]; 32 mg/L = 32 ppm): 26.0 ab; BS3 average disease severity of bacterial spot on two mostly infected leaves ([2]; 32 mg/L = 32 ppm): 35.0 b; WHOLE3 disease severity over the whole plant ([2]; 32 mg/L = 32 ppm): 26.0 ab; bacterial spot disease compared to CK ([2]; at 32 and 64 mg/L alone): failed to reduce the disease; AUDPC_BS ([2]; 32 mg/L = 32 ppm): 439.3 b; AUDPC_WHOLE ([2]; 32 mg/L = 32 ppm): 322.7 ab; effect on disease reduction compared to ManKocide at the label rate of 2.1 mg/ml ([3]; piperidine at 64 mg/ml, foliar spray): even better than ManKocide® |
| pyrrolidine | 14.0 bc | 5.1 bc | 15.2 bc | 7.5 cde | 17.5 c | 5.3 c | 219.6 c | 88.7 days | 466.1 c | 31.7 | 3.95 | 401.8 | 23.1 | 3.99 | 15.9 | significantly (P<0.05) reduced bacterial spot disease severity at the last rating and the overall disease progress | 5.6 | BS1 average disease severity of bacterial spot on two mostly infected leaves ([2]; 128 mg/L = 128 ppm): 7.5 c; WHOLE1 disease severity over the whole plant ([2]; 128 mg/L = 128 ppm): 1.5 c; BS2 average disease severity of bacterial spot on two mostly infected leaves ([2]; 128 mg/L = 128 ppm): 9.0 c; WHOLE2 disease severity over the whole plant ([2]; 128 mg/L = 128 ppm): 1.8 de; BS3 average disease severity of bacterial spot on two mostly infected leaves ([2]; 128 mg/L = 128 ppm): 11.0 c; WHOLE3 disease severity over the whole plant ([2]; 128 mg/L = 128 ppm): 3.8 c; bacterial spot disease compared to the untreated control (CK) ([2]; at 64 and 128 mg/L each): significantly (P<0.05) reduced bacterial spot disease; AUDPC_BS ([2]; 128 mg/L = 128 ppm): 127.8 cd; AUDPC_WHOLE ([2]; 128 mg/L = 128 ppm): 31.2 days |
